Experimental data taken from US20250155354A1, “METHOD AND DEVICE FOR HIGH THROUGHPUT CELL DEFORMABILITY MEASUREMENTS” (THE REGENTS OF THE UNIVERSITY OF CALIFORNIA, priority 2010, published 2025).

Tested on: cervical carcinoma cells (HeLa)
Test: Cell deformability measurement of drug-treated HeLa cells in microfluidic extensional flow (cytoskeletal disruption)
Type: cell-based
Experimental: Still referring to FIG. 4, post-processing (operation 450) is conducted on the data 80 to determine cell size, cell deformation, and cell circularity. The cells 50 passing through the system 10 may either be of a known phenotype or an unknown phenotype as illustrated by operation 400. As part of the post processing operation 450, the size of the cell 50 prior to entering the extensional region 40 is determined. The cell diameter (d) is determined as the average of the minimum cell diameters at […] to horizontal prior to entering the extensional region 40 (approximately four (4) frames prior to entering extension region 40). By taking the size measurements from the vertical axis, noise due to blur attributed to high velocities in the horizontal direction is reduced. As the cell 50 enters the extension region 40 and changes trajectory the deformability and circularity parameters are measured. In the frame where the largest deformation is calculated, the corresponding circularity is recorded as well. The deformability parameter is determined by the ratio a/b of the maximum diameter (a) in the vertical direction at 90°±30° to the minimum diameter (b) in the horizontal direction at 0°±30°. The circularity parameter is calculated by (4πA/L^2) wherein A is the area of the observed cell and L is the perimeter of the cell. […]

SMILES	cell deformability (a/b) versus untreated HeLa control (HeLa cells incubated in 2 μM nocodazole for 1 hour prior to deformability assay)	cell deformability (a/b) versus untreated HeLa control (HeLa cells incubated in 0.1 μM Latrunculin A for 4 hours prior to deformability assay)
COC(=O)Nc1nc2ccc(C(=O)c3cccs3)cc2[nH]1 [Nocodazole]	more rigid than untreated cells	
C/C1=C/C(=O)O[C@@H]2C[C@@H](CC[C@H](C)/C=C\C=C\CC1)O[C@@](O)([C@@H]1CSC(=O)N1)C2 [Latrunculin, Latrunculin A]		significantly more deformable
